Reference: patent publication US20240197938A1, “ANTIMICROBIAL COMPOUNDS BASED ON GLUCOHEPTONIC ACIDS AND THEIR SALTS” (HARCROS CHEMICALS, INC., priority 2021, published 2024)

Columns and labels:
[1] = Bubble pressure tensiometry (dynamic surface tension, calculated CMC); format: physicochemical; conditions: sub-CMC, CMC and super-CMC concentrations; FIGS. 1-7
Description: Dynamic surface tensions of certain formulations were measured using a KRÜSS BP100 BPT Mobile bubble pressure tensiometer. Samples of the solution of Example 7 were tested by adding the test solution to a glass dish and lowering the disposable capillary tip and temperature probe into the solution. The dynamic setting was selected, and the instrument was set to collect 30 data points, the bubble age increasing from about 10 ms to about 30,000 ms.
Bubble tensiometry was used to calculate the Critical Micelle Concentration (CMC) value for each of the solutions.
FIG. 1 presents a comparison of the bubble age to surface tension for RM14A at CMC, sub-CMC, and super-CMC concentrations. FIG. 2 presents a comparison of the bubble age to surface tension for RM14B at CMC, sub-CMC, and super-CMC concentrations. FIG. 3 presents a comparison of the bubble age to surface tension for RM14C at CMC, sub-CMC, and super-CMC concentrations. FIG. 4 presents a comparison of the bubble age to surface tension for RM12A, RM13A, RM14A, and RM15A at super-CMC concentrations. FIG. 5 presents a comparison of the bubble age to surface tension for RM12A, RM13A, RM14A, and RM15A at CMC concentrations. FIG. 6 presents a comparison of the bubble age to surface tension for RM12A, RM13A, RM14A, and RM15A at CMC concentrations. FIG. 7 presents a comparison of bubble age to surface tension for RM12A, RM13A, RM14A, and RM15A at sub-CMC concentrations.

Salmonella abony = test: ASTM E2315-16 Time-Kill Procedure; format: cell-based; conditions: 30 seconds
Description: (§1) Select compounds were tested for antimicrobial activity using ASTM method […]-16 (Standard Guide for Assessment of Antimicrobial Activity using a Time-Kill Procedure). Six microbes were tested: Candida albicans, Staphylococcus aureus, Staphylococcus epidermidis. Escherichia coli, Salmonella abony, and Listeria monocytogenes. Four chlorhexidine salts were tested: chlorhexidine di-α-glucoheptonate (Sample G), chlorhexidine di-β73-glucoheptonate (Sample H), chlorhexidine digluconate (Sample I), and chlorhexidine diacetate (Sample P). Both chlorhexidine diglucoheptonate salts were prepared at a 2:1 molar ratio of glucoheptonic acid to chlorhexidine. Dilutions of each salt were prepared using sterile water (20-30 ppm hardness), to achieve the desired wt. % concentration. Benzalkonium salts were also tested using the same procedure as set forth in Example 13. The samples were benzalkonium chloride (C12-C16) (Sample C), benzalkonium chloride (C12-C14) (Sample D), benzalkonium chloride in combination with a stoichiometric amount of α-glucoheptonate (Sample F), and benzalkonium chloride in combination with a molar excess of α-glucoheptonate (Sample N). Sample F was prepared by mixing and extensively heating a stoichiometric quantity (1:1) of sodium α-glucoheptonate with benzalkonium chloride, typified by the C12-14 alkyl chain. Sample N was prepared by simply blending benzalkonium chloride, typified by the C12-16 chain, with a molar excess of sodium α-glucoheptonate (1.6:1). Both Samples F and N contain sodium chloride.

Escherichia coli = test: ASTM E2315-16 Time-Kill Procedure; format: cell-based; conditions: 30 seconds
Description: as §1

Listeria monocytogenes = test: ASTM E2315-16 Time-Kill Procedure; format: cell-based; conditions: 30 seconds
Description: as §1

[2] = test system: all microbes (Candida albicans, Staphylococcus aureus, Staphylococcus epidermidis, Escherichia coli, Salmonella abony, Listeria monocytogenes); test: ASTM E2315-16 Time-Kill Procedure, average across all microbes; format: cell-based; conditions: for Log Reduction, Average, all microbes: 30 seconds; for average Log Reduction (LR) in microbial population across all microbes: 10 minutes
Description: as §1, with “concentration. Samples G, H, I, and P were also tested at a concentration of 0.60 wt % active and evaluated for the average Log Reduction in microbial population at 10 minutes, across all microbes. A further test was conducted at a concentration of 1.0 wt % active and evaluated for the average Log Reduction in microbial population at 10 minutes, across all microbes.” for “concentration.”, “chloride. A further antimicrobial test was conducted to determine the log reduction at 10 minutes. Samples C, D, F, and N are as defined above.” for “chloride.”

[3] = test system: Staphylococcus epidermidis; test: ASTM E2315-16 Time-Kill Procedure; format: cell-based; conditions: 30 seconds
Description: as §1, with “concentration. Two glucoheptonic acids were evaluated for antimicrobial activity against the same six microbes as Example 13. Sample L was α-glucoheptonic acid. Sample M was β73-glucoheptonic acid.” for “concentration.”

Staphylococcus aureus = test: ASTM E2315-16 Time-Kill Procedure; format: cell-based; conditions: 30 seconds
Description: as §1, with “concentration. Two glucoheptonic acids were evaluated for antimicrobial activity against the same six microbes as Example 13. Sample L was α-glucoheptonic acid. Sample M was β73-glucoheptonic acid.” for “concentration.”

Candida albicans = test: ASTM E2315-16 Time-Kill Procedure; format: cell-based; conditions: 30 seconds
Description: as §1, with “concentration. Two glucoheptonic acids were evaluated for antimicrobial activity against the same six microbes as Example 13. Sample L was α-glucoheptonic acid. Sample M was β73-glucoheptonic acid.” for “concentration.”

N=C(NCCCCCCNC(=N)NC(=N)Nc1ccc(Cl)cc1)NC(=N)Nc1ccc(Cl)cc1.O=C(O)C(O)C(O)C(O)C(O)C(O)CO.O=C(O)C(O)C(O)C(O)C(O)C(O)CO [Sample H, chlorhexidine di-β73-glucoheptonate]
surface tension versus bubble age (rate and magnitude of reduction) [1]: fall more rapidly and to a lower value than either the di-α-glucoheptonate or the comparative digluconate salt
Log Reduction (Salmonella abony; 0.20% (wt. %)): 3.14
Log Reduction (Salmonella abony; 0.60% (wt. %)): 3.26
Log Reduction (Salmonella abony; 1.00% (wt. %)): 3.44
Log Reduction (Escherichia coli; 0.20% (wt. %)): 2.39
Log Reduction (Escherichia coli; 0.60% (wt. %)): 2.87
Log Reduction (Escherichia coli; 1.00% (wt. %)): 3.77
Log Reduction (Listeria monocytogenes; 0.20% (wt. %)): 1.57
Log Reduction (Listeria monocytogenes; 0.60% (wt. %)): 4.99
Log Reduction (Listeria monocytogenes; 1.00% (wt. %)): 5.27
Log Reduction, Average, all microbes ([2]; 0.20% (wt. %)): 2.27
Log Reduction, Average, all microbes ([2]; 0.60% (wt. %)): 3.59
Log Reduction, Average, all microbes ([2]; 1.00% (wt. %)): 4.18
average Log Reduction (LR) in microbial population across all microbes ([2]; 0.60 wt % active): 5.25
average Log Reduction (LR) in microbial population across all microbes ([2]; 1.0 wt % active): 5.51
performance in the Time-Kill Test ([2]; at lower concentrations): better performance than the di-α-glucoheptonate salt
Log Reduction ([3]; 0.20% (wt. %)): 1.47
Log Reduction ([3]; 0.60% (wt. %)): 2.65
Log Reduction ([3]; 1.00% (wt. %)): 3.75
Log Reduction (Staphylococcus aureus; 0.20% (wt. %)): 0.76
Log Reduction (Staphylococcus aureus; 0.60% (wt. %)): 3.19
Log Reduction (Staphylococcus aureus; 1.00% (wt. %)): 4.33
Log Reduction (Candida albicans; 0.20% (wt. %)): 4.26
Log Reduction (Candida albicans; 0.60% (wt. %)): 4.56
Log Reduction (Candida albicans; 1.00% (wt. %)): 4.51
